Test results as given in ChEMBL document CHEMBL1201862, “PubChem BioAssay data set” (2004).
Values belong to the molecule of their own block, whether it stands above or below them. Active and inactive are the calls of the source.

Experiments:
[1] = target: Neuropeptide Y receptor type 2 (Homo sapiens, UniProt P49146); type: functional, cell-based;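 note: HEK293 cells expressing the receptor and a CNG channel; stimulus was NPY near EC95 followed by isoproterenol to raise cAMP; antagonist potency measured as restoring cAMP signal that NPY suppresses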
[2] = target: Neuropeptide Y receptor type 1 (Homo sapiens, UniProt P25929); type: functional;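 note: HEK293 cells with a CNG channel challenged with NPY then isoproterenol; potency as antagonist that reverses NPY suppression of cAMP signal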
HeLa = assay: Cytotoxicity counterscreen assay for transcriptional activators of heat shock protein 70 (Hsp70). [Related pubchem assays: 1203, 1252 ]; type: functional; conditions: Homo sapiens;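 note: cells exposed to compound for 16 hours before readout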
Jurkat = assay: blockers of NF-kB activation in T cells – Jurkat, luciferase reporter, luminescence, B- and T-cell, dose response (AID 489004); type: functional, cell-based; conditions: Homo sapiens;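 note: NF-kB luciferase reporter Jurkat cells stimulated with PMA plus ionomycin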
[3] = HEK-293T viability loss, compound-treated – cell-based, uHTS hits, cytotoxicity control for B/T-cell NF-kB inhibitor project, dose response (AID 489019); type: functional;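 note: IC50 reflects cytotoxicity as loss of cell viability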
[4] = target: Mitogen-activated protein kinase 10 (Homo sapiens, UniProt P53779); assay: Dose response biochemical screening assay for inhibitors of c-Jun N-Terminal Kinase 3 (JNK3). [Related pubchem assays: 746 ]
Wee1-like protein kinase = Wee1-like protein kinase (Homo sapiens, UniProt P30291); assay: Dose Response Cell-based Assay for Inhibitors of Wee1 Degradation. [Related pubchem assays: 1410, 1321 ]; type: functional
[5] = target: G2/mitotic-specific cyclin-B1 (Homo sapiens, UniProt P14635); assay: Counterscreen assay for inhibitors of Wee1 degradation: dose response cell-based assay to identify inhibitors of cyclin B degradation. [Related pubchem assays: 1410, 1321 ]; type: functional
Ion channel NompC [6] = target: T1, Ion channel NompC (Danio rerio, UniProt Q7T1G6); assay: Fluorescence counterscreen assay for TRPML3 agonists: dose response cell-based high-throughput screening assay to identify agonists of the transient receptor potential channel N1 (TRPN1). [Related pubchem assays: 1526, 1424, 1448 ]; type: functional
Mucolipin-3 [7] = target: T2, Mucolipin-3 (Homo sapiens, UniProt Q8TDD5); assay: activators of mucolipin-3 and mucolipin-2 – cell-based, patch clamp, Fura-2 profiling panel, panel member TRPML3 Dose Response (AID 2116)
T2 sequence (Q8TDD5 whole entry): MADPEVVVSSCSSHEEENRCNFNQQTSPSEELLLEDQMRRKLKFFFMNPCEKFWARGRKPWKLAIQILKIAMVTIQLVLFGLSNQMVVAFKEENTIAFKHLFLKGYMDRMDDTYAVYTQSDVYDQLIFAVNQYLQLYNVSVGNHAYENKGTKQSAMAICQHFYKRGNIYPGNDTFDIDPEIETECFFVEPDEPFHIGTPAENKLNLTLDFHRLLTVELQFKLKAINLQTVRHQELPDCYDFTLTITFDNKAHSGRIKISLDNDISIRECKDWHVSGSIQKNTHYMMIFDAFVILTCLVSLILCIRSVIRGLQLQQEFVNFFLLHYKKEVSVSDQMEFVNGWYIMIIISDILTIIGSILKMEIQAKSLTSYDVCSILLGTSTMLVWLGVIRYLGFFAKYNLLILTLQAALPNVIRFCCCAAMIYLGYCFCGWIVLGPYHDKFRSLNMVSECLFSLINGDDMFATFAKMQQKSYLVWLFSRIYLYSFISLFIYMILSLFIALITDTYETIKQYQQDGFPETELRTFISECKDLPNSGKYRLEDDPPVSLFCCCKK

Ion channel NompC [8] = target: T1, Ion channel NompC; assay: activators of mucolipin-3 and mucolipin-2 – cell-based, […], Fura-2 profiling panel, panel member TRPN1 Dose Response (AID 2116)
Mucolipin-3 [9] = target: T2, Mucolipin-3; assay: Dose response cell-based high-throughput screening assay for agonists of the transient receptor potential channel ML3 (TRPML3). [Related pubchem assays: 1526, 1424, 1448 ]; type: functional

T1 sequence (Q7T1G6 whole entry): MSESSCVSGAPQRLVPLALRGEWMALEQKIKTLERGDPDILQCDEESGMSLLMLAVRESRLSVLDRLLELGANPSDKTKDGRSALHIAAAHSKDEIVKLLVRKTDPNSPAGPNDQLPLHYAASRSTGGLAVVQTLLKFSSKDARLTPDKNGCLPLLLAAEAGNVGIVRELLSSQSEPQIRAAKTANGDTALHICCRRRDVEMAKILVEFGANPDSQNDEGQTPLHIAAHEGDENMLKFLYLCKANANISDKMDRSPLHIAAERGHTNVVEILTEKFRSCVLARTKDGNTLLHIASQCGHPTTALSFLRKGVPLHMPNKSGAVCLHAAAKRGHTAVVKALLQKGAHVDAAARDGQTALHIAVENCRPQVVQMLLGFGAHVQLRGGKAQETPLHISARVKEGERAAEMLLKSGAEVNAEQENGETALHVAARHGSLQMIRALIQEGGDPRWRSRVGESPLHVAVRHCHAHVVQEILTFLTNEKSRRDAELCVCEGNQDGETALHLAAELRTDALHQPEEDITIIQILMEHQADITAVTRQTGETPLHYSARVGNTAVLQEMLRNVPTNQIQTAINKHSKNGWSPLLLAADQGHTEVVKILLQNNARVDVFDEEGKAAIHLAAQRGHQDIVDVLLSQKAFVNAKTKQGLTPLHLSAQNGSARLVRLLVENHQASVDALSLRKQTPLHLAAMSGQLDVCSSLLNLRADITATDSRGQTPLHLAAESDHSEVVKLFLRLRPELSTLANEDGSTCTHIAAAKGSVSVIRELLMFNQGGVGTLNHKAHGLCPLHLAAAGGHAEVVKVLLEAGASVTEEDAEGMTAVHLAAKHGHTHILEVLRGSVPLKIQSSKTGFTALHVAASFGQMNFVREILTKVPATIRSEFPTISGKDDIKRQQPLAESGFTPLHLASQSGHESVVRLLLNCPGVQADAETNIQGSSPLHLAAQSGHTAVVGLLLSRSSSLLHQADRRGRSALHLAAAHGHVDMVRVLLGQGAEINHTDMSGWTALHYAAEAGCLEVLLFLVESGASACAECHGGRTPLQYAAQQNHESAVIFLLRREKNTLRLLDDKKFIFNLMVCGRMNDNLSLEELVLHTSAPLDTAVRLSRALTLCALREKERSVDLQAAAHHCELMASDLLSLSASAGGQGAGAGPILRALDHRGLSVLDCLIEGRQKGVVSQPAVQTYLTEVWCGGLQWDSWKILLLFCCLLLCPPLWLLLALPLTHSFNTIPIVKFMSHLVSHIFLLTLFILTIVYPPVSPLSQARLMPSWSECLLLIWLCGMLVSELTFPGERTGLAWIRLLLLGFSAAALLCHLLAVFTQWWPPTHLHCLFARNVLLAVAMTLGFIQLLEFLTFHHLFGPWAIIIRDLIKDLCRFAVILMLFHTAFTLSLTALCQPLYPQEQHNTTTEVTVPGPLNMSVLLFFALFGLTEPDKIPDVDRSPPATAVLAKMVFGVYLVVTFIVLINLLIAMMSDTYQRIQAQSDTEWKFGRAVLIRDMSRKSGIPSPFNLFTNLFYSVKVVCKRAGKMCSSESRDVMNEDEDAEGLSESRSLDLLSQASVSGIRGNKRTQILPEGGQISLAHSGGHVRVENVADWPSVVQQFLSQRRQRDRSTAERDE
Sequence of Neuropeptide Y receptor type 2 (P49146 whole entry): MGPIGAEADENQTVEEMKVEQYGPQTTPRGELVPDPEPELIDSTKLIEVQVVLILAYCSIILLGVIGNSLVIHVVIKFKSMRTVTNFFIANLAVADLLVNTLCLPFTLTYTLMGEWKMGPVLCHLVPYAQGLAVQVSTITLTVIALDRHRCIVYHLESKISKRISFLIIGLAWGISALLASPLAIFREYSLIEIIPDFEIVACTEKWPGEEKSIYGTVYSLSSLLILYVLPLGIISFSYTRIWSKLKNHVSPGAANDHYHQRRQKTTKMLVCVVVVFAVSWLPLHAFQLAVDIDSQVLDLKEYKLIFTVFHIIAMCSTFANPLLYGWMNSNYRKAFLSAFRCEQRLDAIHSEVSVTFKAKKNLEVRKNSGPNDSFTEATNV
Sequence of G2/mitotic-specific cyclin-B1 (P14635 whole entry): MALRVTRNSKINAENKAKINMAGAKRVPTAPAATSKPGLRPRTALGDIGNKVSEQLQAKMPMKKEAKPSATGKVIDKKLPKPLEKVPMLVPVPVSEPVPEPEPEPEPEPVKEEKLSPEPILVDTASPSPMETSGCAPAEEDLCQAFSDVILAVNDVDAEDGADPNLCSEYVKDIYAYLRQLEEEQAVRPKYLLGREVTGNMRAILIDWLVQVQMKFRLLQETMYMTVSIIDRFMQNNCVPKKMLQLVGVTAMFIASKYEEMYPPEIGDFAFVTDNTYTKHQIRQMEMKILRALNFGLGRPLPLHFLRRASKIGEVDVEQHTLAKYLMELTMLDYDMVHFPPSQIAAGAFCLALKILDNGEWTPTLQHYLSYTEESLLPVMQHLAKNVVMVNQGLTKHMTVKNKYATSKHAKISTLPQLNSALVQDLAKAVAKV
Sequence of Neuropeptide Y receptor type 1 (P25929 whole entry): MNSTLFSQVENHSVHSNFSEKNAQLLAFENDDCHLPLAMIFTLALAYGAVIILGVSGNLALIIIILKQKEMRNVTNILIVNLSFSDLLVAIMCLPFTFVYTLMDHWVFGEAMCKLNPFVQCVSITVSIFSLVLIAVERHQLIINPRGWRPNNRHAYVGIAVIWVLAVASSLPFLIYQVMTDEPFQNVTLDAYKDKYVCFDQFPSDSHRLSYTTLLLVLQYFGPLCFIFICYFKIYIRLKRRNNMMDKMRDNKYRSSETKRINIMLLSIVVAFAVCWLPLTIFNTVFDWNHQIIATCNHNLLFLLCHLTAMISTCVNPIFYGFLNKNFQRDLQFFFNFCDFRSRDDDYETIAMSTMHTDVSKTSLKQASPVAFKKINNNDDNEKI
Sequence of Mitogen-activated protein kinase 10 (P53779 whole entry): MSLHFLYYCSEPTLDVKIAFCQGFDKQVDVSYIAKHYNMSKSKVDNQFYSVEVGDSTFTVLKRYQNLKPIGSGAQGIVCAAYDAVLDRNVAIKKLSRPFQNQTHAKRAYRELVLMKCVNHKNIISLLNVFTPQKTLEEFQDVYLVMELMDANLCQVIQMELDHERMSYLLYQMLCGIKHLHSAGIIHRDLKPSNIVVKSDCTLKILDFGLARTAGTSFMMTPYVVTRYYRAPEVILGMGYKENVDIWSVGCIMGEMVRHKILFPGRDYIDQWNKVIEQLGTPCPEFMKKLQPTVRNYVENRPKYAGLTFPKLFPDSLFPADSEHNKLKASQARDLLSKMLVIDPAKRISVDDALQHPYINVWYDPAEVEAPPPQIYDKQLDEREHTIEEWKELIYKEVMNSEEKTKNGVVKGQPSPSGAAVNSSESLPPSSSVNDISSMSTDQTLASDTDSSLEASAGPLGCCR
Sequence of Wee1-like protein kinase (P30291 whole entry): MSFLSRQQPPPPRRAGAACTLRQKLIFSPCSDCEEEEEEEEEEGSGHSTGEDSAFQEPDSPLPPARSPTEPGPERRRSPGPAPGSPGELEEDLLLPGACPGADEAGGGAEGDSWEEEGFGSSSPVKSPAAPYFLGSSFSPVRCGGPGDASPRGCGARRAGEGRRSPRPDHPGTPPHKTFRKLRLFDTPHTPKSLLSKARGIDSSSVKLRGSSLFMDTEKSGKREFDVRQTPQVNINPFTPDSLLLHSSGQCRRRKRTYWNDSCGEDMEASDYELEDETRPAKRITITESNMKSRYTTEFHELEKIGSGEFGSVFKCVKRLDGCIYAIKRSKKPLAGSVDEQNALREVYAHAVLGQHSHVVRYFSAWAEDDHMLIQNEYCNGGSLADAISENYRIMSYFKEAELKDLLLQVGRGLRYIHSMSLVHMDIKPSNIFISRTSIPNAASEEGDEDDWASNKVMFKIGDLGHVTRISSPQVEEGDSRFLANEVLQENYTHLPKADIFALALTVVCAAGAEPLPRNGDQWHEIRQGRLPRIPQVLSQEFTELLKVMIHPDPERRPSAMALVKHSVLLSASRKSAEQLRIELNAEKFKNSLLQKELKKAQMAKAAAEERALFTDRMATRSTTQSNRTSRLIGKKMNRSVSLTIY

- IC50 [1]: 17.5 µM (not active)
- IC50 [2]: 13.6 µM (not active)
SMILES: CN1CCC(Oc2ccccc2Sc2ccccc2)CC1

SMILES: CN(Cc1ccco1)C(=O)Cn1nc(-c2ccc(Cl)cc2)ccc1=O
- CC50 (HeLa): > 99 µM (not active)

SMILES: Cc1ccnc(NC(=O)CCCOc2cc(=O)n(C)c3ccccc23)c1
- IC50 (Jurkat): 6.22 µM (active)
- IC50 [3]: > 80 µM (inactive)
- IC50 [4]: 62.4 µM (not active)
- EC50 (Wee1-like protein kinase): 7.87 µM (active)
- EC50 [5]: > 49.7 µM (not active)

- EC50 (Ion channel NompC [6]): > 29.9 µM (not active)
- EC50 (Mucolipin-3 [7]): 2 µM (active)
- EC50 (Ion channel NompC [8]): > 29.9 µM (inactive)
- EC50 (Mucolipin-3 [9]): 1.43 µM (active)
SMILES: Cc1ccc(N2CCN(S(=O)(=O)N3CCCCC3)CC2)c(C)c1
